Entries after “also recorded” stand apart in the source; their conditions may differ. Bridges are numbered along the chain shown (N, C = ends). Where no end group is shown, it is not given here.

A word on the IC50: it is the concentration needed to halve the response being measured.

For data set [1], the system named is resistant TNBC MDA-MB-231R cells. Description: NBD-MsDef1 uptake by confocal microscopy, MDA-MB-231R. The class given is cell-based. As to conditions: 15 min at 37°C, 20, 6.6 or 2.2 µg/ml, N=4.
In data set [2] the test system is normal epithelial breast cells (MCF-10A). As to the kind of experiment: NBD-MsDef1 uptake by confocal microscopy, MCF-10A. The class given is cell-based. Also noted: dose or concentration left out as unconfirmed. As to conditions: even at 5-fold higher dose.
A further data set has as its system fibroblasts cells. Description: NBD-MsDef1 uptake by confocal microscopy, fibroblasts. Also on record: dose or concentration left out as unconfirmed. The class given is cell-based. Particulars: even at 5-fold higher dose.
Data set [3] can be described thus: IC50 of NBD-labelled peptide, cell line not stated. The class given is cell-based. As to conditions: similar to native MsDef1. The method, then:
(§1) Cell viability was evaluated by the standard MTT ([…])-2,5-diphenyltetrazolium bromide, Sigma) method. All cancer cells (MDA-MB-231, MCF-7, MCF-R, Hela, MCF-10A epithelial breast cells, induced pluripotent stem cells derived cardiomyocytes (iPSc) were added to the wells of 96-well flat-bottom plates at the density of 2×10^4 per well, allowed to attach overnight, and treated with different concentrations of MsDef1 (1-100 µM). After 24 h, 10 µl of MTT solution was added to each well and the plate was incubated at 37°C for 3 h. After removing the media, 200 µl of isopropanol were added to dissolve the crystals. Absorbance was read at 550 nm in an ELISA plate reader (Sunrise, Tecan, Milan, Italy), and the results are expressed as relative change with respect to the controls set as 100%. For cardiomyocytes, human iPSCs were used (Ionic Transports, St Louis).

The subject of the next data set is ovarian SKOV3 cells. As to the kind of experiment: NBD-MsDef1 uptake by confocal microscopy, SKOV3. The class given is cell-based. As to conditions: 15 min at 37°C, 20, 6.6 or 2.2 µg/ml, N=4.
A further data set has as its system normal cells. Description: Cell viability, normal cells. The class given is cell-based. Particulars: Figure 6B. The method, then: as §1
A further data set has as its system MDA-MB-231R cells. As to the kind of experiment: Cell death / apoptosis (TUNEL) synergy study, MDA-MB-231R. The class given is cell-based. Particulars: MsDef1 ~25 μM, Doxorubicin; combination = MsDef1 pretreatment followed by Doxorubicin; N=4. The method, then: (§2) Doxorubicin resistant MCF-7R and MDA-MB-231R cells were grown in DMEM 10% FBS with increasing concentrations of Doxorubicin as described by Bielawski et al. ([40]). Cells were seeded and exposed to increasing concentrations of Doxorubicin (10 nM to 100 nM). MCF-7 or MDA-MB-231 cells were seeded in cell culture flasks and after 24 h, cells were trypsinized, counted viable cells and reseeded into a new culture flask before adding Doxorubicin again.
(§3) The percentage of apoptotic cells was determined by using TUNEL assay according to the manufacturer protocol. Briefly, cells were fixed with 1% paraformaldehyde at 4 °C, followed by two washing with PBS. Cold 70% ethanol was added to the cell pellet. Cells were then incubated at −20°C for permeabilization. After washing with PBS, cells were incubated with staining solution containing TdT enzyme and fluorescein-dUTP for 60 min at 37°C. Samples were washed with rinse buffer and resuspended in […] of propidium iodise/RNase solution for flow cytometry analysis.

In another data set the test system is MDA-MB-231 cells. Description: cells. The class given is cell-based. Particulars: Homo sapiens, Doxorubicin dose response alone or combined with Def1 at 20 μM, N=4, unit inferred, read-out: IC50 (Figure 6C).
A further data set concerns MCF-7R cells. Description: Cell death / apoptosis (TUNEL) synergy study, MCF-7R. The class given is cell-based. As to conditions: MsDef1 ~25 μM, Doxorubicin; combination = MsDef1 pretreatment followed by Doxorubicin; N=4. The method, then: as §2, §3
In data set [4] the test system is GlcCer and Trx positive cancer cells. As to conditions: read-out: inhibitory activity IC50 against several cancer cells. The method, then:
as §1

Another data set deals with pepsin (Sus scrofa, UniProt P00791). Particulars: SGF (200 mg NaCl, 0.2% pepsin, pH 2), 500 μL, 37°C, 2 min preincubation, 25 μL of 5 mg/ml protein, SDS PAGE read-out, n=4.
Chain of pepsin (P00791 60-385): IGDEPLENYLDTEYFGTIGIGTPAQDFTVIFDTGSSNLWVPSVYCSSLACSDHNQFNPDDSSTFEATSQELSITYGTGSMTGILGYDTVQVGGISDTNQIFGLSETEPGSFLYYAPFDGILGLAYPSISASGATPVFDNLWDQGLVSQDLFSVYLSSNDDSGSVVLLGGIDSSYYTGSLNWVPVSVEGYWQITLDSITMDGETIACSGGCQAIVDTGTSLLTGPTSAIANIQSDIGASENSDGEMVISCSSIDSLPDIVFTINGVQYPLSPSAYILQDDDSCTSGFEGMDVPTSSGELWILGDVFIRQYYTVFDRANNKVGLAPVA

Protocol for pepsin: The Simulated Gastric Fluid (SGF) assay was performed as described by Fu et al., 2002 with some modification. Tests were performed in 500 μL of SGF (200 mg NaCl, 0.2% pepsin, pH 2) in glass tubes in a 37°C water bath with continuous stirring of the enzyme reaction. […] Five mg/ml bovine serum albumin (minimum 98%, A-7030, Sigma Aldrich) in ultrapure water was used as the positive control for pepsin digestion. Protein samples were analyzed for degradation by SDS PAGE followed by staining for 1 h and extensive washing with ultrapure water.

Consider “6-((N-(7-nitrobenz-2-oxa-1, 3-diazol-4-yl) amino) hexanoyl -MsDef1 [NBD-MsDef1]”, for which the cell uptake entry is recorded as “significant uptake” in [1], “did not take up” in [2], “did not take up” in the data set with fibroblasts cells and “significant uptake” with ovarian SKOV3 cells. Also, it took 12 µM to reach half-maximal inhibition in data set [3] (IC50).
On to `COc1cccc2c1C(=O)c1c(O)c3c(c(O)c1C2=O)C[C@@](O)(C(=O)CO)C[C@@H]3O[C@H]1C[C@H](N)[C@H](O)[C@H](C)O1` [Doxorubicin], for which the “dose at which normal cells are killed / still safe” value in the data set on normal cells was ~ 9.6 μM. In addition, the cell death in the data set on MDA-MB-231R cells and in the data set on MCF-7R cells was ~ 30% in each case. Further, in the data set with MDA-MB-231 cells, the IC50 was found to be 0.396 µM.
Consider “RTCENLADKYRGPCFSGCDTHCTTKENAVSGRCRDDFRCWCTKRC (disulfide 3-45, 14-33, 18-39, 22-41) [MsDef1]”, for which the IC50 in data set [4] was in the range of 10 to 15 µM. On pepsin, the “stability to digestion in SGF” value is on record as “remained undigested; also recorded: no significant change in the intensity of the bands”.
